Experimental data from patent US12053473B2, “Benzylamino substituted quinazolines and derivatives as SOS1 inhibitors” (priority 2016, dated 2024).
pIC50: −log10 of the molar value.

Molecular target: SOS1 and KRAS G12D (protein-protein interaction) (Homo sapiens, UniProt Q07889)
Experiment: KRAS::SOS1 AlphaScreen binding assay
Settings: not given
Description: KRAS::SOS1 AlphaScreen Binding Assay
Low IC50 values are indicative of high potency of the SOS1 inhibitor compound in this assay setting:
10 nM (final assay concentration) KRAS G12D, 10 μM (final assay concentration) GDP and 5 nM (final assay concentration) GST-SOS1 are mixed in assay buffer prior to use and kept at room temperature.
AlphaLSA Glutathione Acceptor Beads and AlphaScreen Streptavidin Donor Beads are mixed in assay buffer at a concentration of 10 μg/mL (final assay concentration) each prior to use and kept at room temperature.
Compounds are diluted to a final start concentration of 100 μM and are tested in duplicate. […] For compound a start concentration of 100 μM, 150 nL of compound solution is transferred per well in 11 concentrations in duplicate with serial 1:5 dilutions.
The assay is run using a fully automated robotic system in a darkened room below 100 Lux. 10 μL of KRAS::SOS1 GDP mix is added into columns 1-24 to the 150 nL of compound solution (final dilution in the assay 1:100, final DMSO concentration 1%).
After a 30 minute incubation time 5 μL of bead mix is added into columns 1-23. Plates are kept at room temperature in a darkened incubator. After a further 60 minute incubation, the signal is measured using a PerkinElmer Envision HTS Multilabel Reader using the AlphaScreen specifications from PerkinElmer. Each plate contains the following controls: • diluted DMSO+KRAS::SOS1 GDP mix+bead mix • diluted DMSO+KRAS::SOS1 GDP mix Result Calculation:
IC50 values are calculated and analyzed using a 4 parametric logistic model.

Compound | pIC50
Cc1nc(N[C@H](C)c2cccc(C(F)(F)F)c2)c2cc([C@]3(O)CC[C@H](O)CC3)ccc2n1 [I-59] | 7.70
COc1cc2nc(C)nc(N[C@H](C)c3cccc(C(F)(F)F)c3)c2cc1[C@]1(O)CC[C@@H](C(=O)N(C)CCO)CC1 [I-75] | 8.15
Cc1nc(N[C@H](C)c2cccc(C(F)(F)F)c2F)c2cc([C@]3(O)CC[C@@H](O)CC3)ccc2n1 [I-61] | 8.10
Cc1nc(N[C@H](C)c2cccc(C(F)(F)F)c2)c2cc([C@]3(O)CC[C@H](O)CC3)cc(C)c2n1 [I-55] | 7.70

Same assay, conditions: assay buffer with 100 μM EDTA (values marked with an asterisk); read-out: IC50 (SOS1)

Compound | pIC50
Cc1cccc([C@@H](C)Nc2nc(C)nc3ccc(C4CC[S+]([O-])CC4)cc23)c1 (stereo partly drawn) [I-160] | 7.66

Same assay, conditions: assay buffer without EDTA (values not marked with an asterisk); read-out: IC50 (SOS1)

Compound | pIC50
COc1cc2nc(C)nc(N[C@H](C)c3cccc(C(F)(F)F)c3F)c2cc1C1(O)CCN(C(C)=O)CC1 [I-45] | 8.70
CCC(=O)N1CC[C@H](Oc2cc3c(N[C@H](C)c4cc(N)cc(C(F)(F)F)c4)nc(C)nc3cc2C)C1 [I-53] | 8.52
Cc1cccc([C@@H](C)Nc2nc(C)nc3ccc(C4CCOCC4)cc23)c1 [I-154] | 7.37
COc1cc2nc(C)nc(N[C@H](C)c3cccc(C)c3)c2cc1-c1ccc(C(=O)N(C)C)nc1 [I-190] | 7.47
CC(=O)N1CC2(C1)CC(O)(c1cc(C)c3nc(C)nc(N[C@H](C)c4cccc(C(F)(F)F)c4)c3c1)C2 [I-42] | 7.59
CC(=O)N1CCC(O)(c2ccc3nc(C)nc(N[C@H](C)c4cccc(C(F)(F)F)c4)c3c2)CC1 [I-48] | 7.82
COCC(=O)N1CCC(O)(c2ccc3nc(C)nc(N[C@H](C)c4cccc(C(F)(F)F)c4)c3c2)CC1 [I-49] | 8.05
COCC(=O)N1CCC(c2cc3c(N[C@H](C)c4cccc(C(F)(F)CO)c4)nc(C)nc3cc2OC)CC1 [I-165] | 8.70
Cc1nc(N[C@H](C)c2cccc(C(F)(F)F)c2)c2cc(C3CCOCC3)ccc2n1 [I-153] | 7.48
COc1cc2nc(C)nc(N[C@H](C)c3cccc(C(F)(F)CO)c3)c2cc1C1CCOCC1 [I-164] | 8.52
Cc1nc(N[C@H](C)c2cc(N)cc(C(F)(F)F)c2)c2cc([C@H]3CC[C@H](O)CC3)ccc2n1 [I-65] | 8.10
CC(=O)N1CC[C@H](Oc2cc3c(N[C@H](C)c4cc(N)cc(C(F)(F)F)c4)nc(C)nc3cc2C)C1 [I-9] | 8.52

Same assay, conditions: read-out: IC50 (SOS1)

Compound | pIC50
COc1cc2nc(C)nc(N[C@H](C)c3cccc(C(F)(F)F)c3C)c2cc1[C@H]1CC[C@H](C(=O)N(C)C)CC1 [I-296] | 8.15
Cc1nc(N[C@H](C)c2cc(N)cc(C(F)(F)F)c2)c2cc([C@H]3CC[C@H](C(=O)N(C)C)CC3)c(C)cc2n1 [I-352] | 8.70
COc1cc2nc(C)nc(N[C@H](C)c3cccc(C)c3)c2cc1C1CCN(C(C)=O)CC1 [I-281] | 7.92
COCCN1CCN(C(=O)[C@H]2CC[C@H](c3cc4c(N[C@H](C)c5cc(N)cc(C(F)(F)F)c5F)nc(C)nc4cc3OC)CC2)CC1 [I-246] | 8.70
COc1cc2nc(C)nc(N[C@H](C)c3cccc(C(F)(F)CO)c3)c2cc1C1=CCC(C(=O)N(C)C)CC1 (stereo partly drawn) [I-285] | 8.70
COc1cc2nc(C)nc(N[C@H](C)c3cc(N)cc(C(F)(F)F)c3)c2cc1-c1ccc(C(=O)N(C)CCO)nc1 [I-224] | 8.40
COc1cc2nc(C)nc(N[C@H](C)c3cc(N)cc(C(F)(F)F)c3C)c2cc1[C@H]1CC[C@@H](C(=O)N(C)C)CC1 [I-249] | 7.42
Cc1nc(N[C@H](C)c2cccc(C(F)(F)F)c2)c2cc(C3=CCC(C(=O)N4CCN(C)CC4)CC3)ccc2n1 (stereo partly drawn) [I-223] | 7.57
COCC(=O)N1CCC(c2cc3c(N[C@H](C)c4cccc(C)c4)nc(C)nc3cc2OC)CC1 [I-282] | 7.70
COc1cc2nc(C)nc(N[C@H](C)c3cc(N)cc(C(F)(F)F)c3)c2cc1-c1ccc(=O)n(C)c1 [I-108] | 8.10
Cc1nc(N[C@H](C)c2cccc(C(F)(F)F)c2)c2cc(C3CCN(CC(=O)N(C)C)CC3)ccc2n1 [I-273] | 7.96
COCCN(C)C(=O)[C@H]1CC[C@H](c2cc3c(N[C@H](C)c4cc(N)cc(C(F)(F)F)c4)nc(C)nc3cc2OC)CC1 [I-357] | 8.52
Cc1nc(N[C@H](C)c2cc(N)cc(C(F)(F)F)c2)c2cc(C3CCN(C(=O)CN(C)C)CC3)ccc2n1 [I-313] | 8.52
COc1cc2nc(C)nc(N[C@H](C)c3cc(N)cc(C(F)(F)F)c3)c2cc1[C@H]1CC[C@@H](C(=O)N(C)C)CC1 [I-356] | 7.47
COc1cc2nc(C)nc(N[C@H](C)c3cccc(C)c3)c2cc1[C@H]1CC[C@H](C(=O)N(C)C)CC1 [I-267] | 8.05
COc1cc2nc(C)nc(N[C@H](C)c3cccc(C(F)(F)F)c3)c2cc1C1CCC(C(=O)N(C)CC(O)CO)CC1 (stereo partly drawn) [I-227] | 7.57
COc1cc2nc(C)nc(N[C@H](C)c3cc(N)cc(C(F)(F)F)c3F)c2cc1[C@H]1CC[C@H](C(=O)N(C)C)CC1 [I-244] | 8.70
Cc1nc(N[C@H](C)c2cc(N)cc(C(F)(F)F)c2)c2cc([C@H]3CC[C@H](C(=O)N(C)C[C@H](C)O)CC3)ccc2n1 [I-254] | 8.70
Cc1nc(N[C@H](C)c2cc(N)cc(C(F)(F)F)c2)c2cc([C@H]3CC[C@H](C(=O)N(C)C[C@@H](C)O)CC3)ccc2n1 [I-256] | 8.52

Compound | pIC50
CNC(=O)CC(C)c1cc2c(N[C@H](C)c3cccc(C(F)(F)F)c3)nc(C)nc2cc1C (stereo partly drawn) [I-377] | 8.00
COCCN1CCN(C(=O)[C@H]2CC[C@H](c3ccc4nc(C)nc(N[C@H](C)c5cc(N)cc(C(F)(F)F)c5)c4c3)CC2)CC1 [I-240] | 8.70
Cc1nc(N[C@H](C)c2cccc(C(F)(F)F)c2)c2cc(C(C)CC(=O)NCC(F)(F)F)c(C)cc2n1 (stereo partly drawn) [I-380] | 7.38
Cc1nc(N[C@H](C)c2cc(N)cc(C(F)(F)F)c2)c2cc([C@H]3CC[C@H](C(=O)N(C)[C@H]4CCOC4)CC3)ccc2n1 [I-250] | 8.40
Cc1nc(N[C@H](C)c2cc(N)cc(C(F)(F)F)c2)c2cc(-c3cnn(CC(=O)N(C)C)c3)ccc2n1 [I-86] | 8.10
CCn1ccc(-c2cc3c(N[C@H](C)c4cc(N)cc(C(F)(F)F)c4)nc(C)nc3cc2C)cc1=O [I-349] | 8.30
Cc1nc(N[C@H](C)c2cc(N)cc(C(F)(F)F)c2)c2cc(-c3cc4n(n3)CCC(=O)N4)ccc2n1 [I-90] | 8.15
COC1CN(C(=O)[C@H]2CC[C@H](c3ccc4nc(C)nc(N[C@H](C)c5cccc(C(F)(F)F)c5)c4c3)CC2)C1 [I-230] | 7.49
CONC(=O)CC(C)c1cc2c(N[C@H](C)c3cccc(C(F)(F)F)c3)nc(C)nc2cc1C (stereo partly drawn) [I-378] | 8.10
Cc1nc(N[C@H](C)c2cccc(C(F)(F)F)c2)c2cc(-c3ccc(=O)n(C)c3)c(C)cc2n1 [I-109] | 7.60
COc1cc2nc(C)nc(N[C@H](C)c3cc(N)cc(C(F)(F)F)c3)c2cc1[C@H]1CC[C@H](C(=O)N(C)C)CC1 [I-355] | 8.70
Cc1nc(N[C@H](C)c2cc(N)cc(C(F)(F)F)c2)c2cc([C@H]3CC[C@H](C(=O)N(C)[C@@H]4CCOC4)CC3)ccc2n1 [I-242] | 8.30
COc1cc(-c2cc3c(N[C@H](C)c4cccc(C(F)(F)F)c4)nc(C)nc3cc2OC)ccc1C(=O)N(C)C [I-217] | 7.37
COCCN1CCN(C(=O)[C@H]2CC[C@@H](c3ccc4nc(C)nc(N[C@H](C)c5cc(N)cc(C(F)(F)F)c5)c4c3)CC2)CC1 [I-241] | 8.15
Cc1nc(N[C@H](C)c2cccc(C(F)(F)F)c2)c2cc([C@H]3CC[C@@H](C(=O)N(C)C4COC4)CC3)ccc2n1 [I-233] | 7.42
COc1cc2nc(C)nc(N[C@H](C)c3cccc(C(F)(F)F)c3)c2cc1-c1ccc(C(=O)N(C)CCO)cc1 [I-214] | 7.40
COc1cc2nc(C)nc(N[C@H](C)c3cccc(C(F)(F)F)c3C)c2cc1[C@H]1CC[C@H](C(=O)N(C)CCO)CC1 [I-294] | 8.30
COCC(=O)N1CCC(c2cc3c(N[C@H](C)c4cc(N)cc(C(F)(F)F)c4F)nc(C)nc3cc2OC)CC1 [I-307] | 8.52
COc1cc2nc(C)nc(N[C@H](C)c3cc(N)cc(C(F)(F)F)c3F)c2cc1-c1ccc(=O)n(C)c1 [I-110] | 8.10

Same assay, conditions: values marked with * in the table; read-out: IC50 (SOS1)

Compound | pIC50
Cc1nc(N[C@H](C)c2cccc(C(F)(F)F)c2)c2cc(-c3ccc(=O)n(CC(=O)N(C)C)c3)ccc2n1 [I-333] | 7.59
Cc1cccc([C@@H](C)Nc2nc(C)nc3ccc(-c4ccn(CC(=O)N(C)C)c(=O)c4)cc23)c1 [I-340] | 9.00
Cc1nc(N[C@H](C)c2cc(N)cc(C(F)(F)F)c2)c2cc(-c3ccc(=O)n(C)c3)c(C)cc2n1 [I-107] | 8.40
COCC(=O)N1CCC(c2ccc3nc(C)nc(N[C@H](C)c4cccc(C)c4)c3c2)CC1 [I-277] | 7.66
Cc1cccc([C@@H](C)Nc2nc(C)nc3ccc([C@H]4CC[S@](=N)(=O)CC4)cc23)c1 [I-332] | 7.74
Cc1cccc([C@@H](C)Nc2nc(C)nc3ccc(C4CCS(=N)(=O)CC4)cc23)c1 (stereo partly drawn) [I-330] | 7.70
COc1cc2nc(C)nc(N[C@H](C)c3cccc(C)c3)c2cc1-c1ccc(=O)n(CC(=O)N(C)C)c1 [I-335] | 7.57
COc1cc2nc(C)nc(N[C@H](C)c3cccc(C)c3)c2cc1-c1ccc(=O)[nH]c1 [I-101] | 7.55
